# From US20230103791A1 (GLAXOSMITHKLINE INTELLECTUAL PROPERTY DEVELOPMENT LIMITED, priority 2019, published 2023)
# Read-outs that look alike come from different tables or passages of the source.
# Target: T1, human Nav1.8 (Homo sapiens, UniProt Q9Y5Y9)
# T1 construct: expressed in transfected cells; host or cells: HEK293 (HEK293-Nav1.8)
# Assay: Nav1.8 sodium channels assay, QPatch 48 HTX electrophysiology in HEK293-Nav1.8 cells
# Assay type: cell-based
# Settings: HEK293-Nav1.8, QPatch 48 HTX, half inactivation state voltage protocol (V1/2), single run or average of two or more runs, read-out: Nav1.8 pIC50 (converted)
# Outline: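 IC50 came from 6-8 point curves of P2 current amplitude, normalized to baseline and a positive reference, and corrected for run-down using vehicle-only wells. Automated patch clamp used HEK293-Nav1.8 (with Navβ1 and TREK1) at pH 7.4 outside and CsF-based solution inside. An 8 s inactivating step at −46 mV preceded the 0 mV test pulse, repeated at 0.07 Hz.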
# T1 sequence (Q9Y5Y9 whole entry): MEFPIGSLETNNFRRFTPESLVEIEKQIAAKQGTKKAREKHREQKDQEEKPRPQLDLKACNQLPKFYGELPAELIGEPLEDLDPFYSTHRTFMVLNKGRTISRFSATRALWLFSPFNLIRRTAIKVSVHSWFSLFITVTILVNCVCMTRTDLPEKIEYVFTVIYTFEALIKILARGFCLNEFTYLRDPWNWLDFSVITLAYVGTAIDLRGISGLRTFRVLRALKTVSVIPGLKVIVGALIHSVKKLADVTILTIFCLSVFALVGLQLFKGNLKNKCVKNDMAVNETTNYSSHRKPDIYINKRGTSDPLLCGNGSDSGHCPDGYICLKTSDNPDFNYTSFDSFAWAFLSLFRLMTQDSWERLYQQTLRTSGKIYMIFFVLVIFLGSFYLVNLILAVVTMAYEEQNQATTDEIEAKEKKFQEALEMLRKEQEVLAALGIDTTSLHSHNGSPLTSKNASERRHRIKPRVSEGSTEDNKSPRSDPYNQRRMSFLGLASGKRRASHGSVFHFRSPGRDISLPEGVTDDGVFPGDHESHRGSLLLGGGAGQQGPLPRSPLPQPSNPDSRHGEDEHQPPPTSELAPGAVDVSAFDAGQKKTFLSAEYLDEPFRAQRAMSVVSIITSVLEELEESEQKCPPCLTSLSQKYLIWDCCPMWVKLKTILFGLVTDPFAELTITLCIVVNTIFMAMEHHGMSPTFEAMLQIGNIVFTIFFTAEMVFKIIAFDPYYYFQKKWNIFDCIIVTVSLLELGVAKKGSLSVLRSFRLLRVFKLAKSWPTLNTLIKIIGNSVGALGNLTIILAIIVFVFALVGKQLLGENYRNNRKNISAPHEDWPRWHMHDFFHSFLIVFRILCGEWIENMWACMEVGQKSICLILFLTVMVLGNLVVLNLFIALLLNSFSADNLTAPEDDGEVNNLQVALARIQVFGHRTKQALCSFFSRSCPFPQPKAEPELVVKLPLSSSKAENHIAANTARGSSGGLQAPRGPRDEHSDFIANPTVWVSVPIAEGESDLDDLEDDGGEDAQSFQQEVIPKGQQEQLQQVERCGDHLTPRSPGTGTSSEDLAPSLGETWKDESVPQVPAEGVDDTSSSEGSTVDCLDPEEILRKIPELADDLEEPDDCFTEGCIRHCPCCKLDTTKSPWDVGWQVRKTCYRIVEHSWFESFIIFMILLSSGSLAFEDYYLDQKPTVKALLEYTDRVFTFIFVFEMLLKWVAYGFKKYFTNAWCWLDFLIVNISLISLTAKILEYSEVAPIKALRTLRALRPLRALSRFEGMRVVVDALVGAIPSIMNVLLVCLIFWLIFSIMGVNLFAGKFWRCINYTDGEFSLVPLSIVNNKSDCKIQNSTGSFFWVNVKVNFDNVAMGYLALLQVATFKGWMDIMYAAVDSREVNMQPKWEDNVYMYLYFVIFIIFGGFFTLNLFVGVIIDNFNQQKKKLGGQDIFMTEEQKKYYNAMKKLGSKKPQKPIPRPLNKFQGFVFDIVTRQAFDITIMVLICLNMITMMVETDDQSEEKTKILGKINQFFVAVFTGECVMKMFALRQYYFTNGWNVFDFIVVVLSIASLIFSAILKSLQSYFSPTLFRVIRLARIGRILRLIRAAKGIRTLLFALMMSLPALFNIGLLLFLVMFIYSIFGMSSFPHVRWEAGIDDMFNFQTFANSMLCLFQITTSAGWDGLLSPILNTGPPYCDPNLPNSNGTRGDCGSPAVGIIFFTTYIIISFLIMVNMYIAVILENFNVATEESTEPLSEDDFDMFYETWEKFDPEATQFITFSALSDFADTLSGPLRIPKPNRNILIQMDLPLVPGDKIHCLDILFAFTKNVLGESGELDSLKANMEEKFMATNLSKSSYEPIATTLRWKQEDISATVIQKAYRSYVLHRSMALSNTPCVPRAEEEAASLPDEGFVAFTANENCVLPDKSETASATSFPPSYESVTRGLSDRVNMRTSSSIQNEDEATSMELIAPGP
# T1 sequence (Q07699 19-218 partner): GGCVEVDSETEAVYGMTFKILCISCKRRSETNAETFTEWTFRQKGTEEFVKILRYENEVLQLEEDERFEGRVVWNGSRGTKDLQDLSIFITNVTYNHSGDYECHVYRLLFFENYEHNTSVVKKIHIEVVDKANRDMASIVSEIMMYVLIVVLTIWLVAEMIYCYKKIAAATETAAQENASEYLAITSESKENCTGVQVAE
IC50 (Table 1) [µM],IC50 (Table 2) [µM],SMILES
–,0.398,"Cc1cc(F)ccc1N1CN(c2cc[nH]c(=O)c2)C(=O)c2ccc(C(F)(F)F)cc21 [drawing 309, 1-(4-fluoro-2-methylphenyl)-3-(2-oxo-1,2-dihydropyridin-4-yl)-7-(trifluoromethyl)-2,3-dihydroquinazolin-4(1H)-one]"
–,1,"Cc1c[nH]c(=O)cc1N1CN(c2ccc(F)cc2C)c2cc(C(F)(F)F)ccc2C1=O [drawing 311, 1-(4-fluoro-2-methylphenyl)-3-(5-methyl-2-oxo-1,2-dihydropyridin-4-yl)-7-(trifluoromethyl)-2,3-dihydroquinazolin-4(1H)-one]"
–,1.26,"Cc1cc(F)ccc1N1CN(c2cc[nH]c(=O)c2C)C(=O)c2ccc(C(F)(F)F)cc21 [drawing 312, 1-(4-fluoro-2-methylphenyl)-3-(3-methyl-2-oxo-1,2-dihydropyridin-4-yl)-7-(trifluoromethyl)-2,3-dihydroquinazolin-4(1H)-one]"

# The remaining lines, values behind:
SMILES,IC50 (Table 1) [µM],IC50 (Table 2) [µM]
"Cc1cc(F)ccc1N1CN(c2ccc(=O)[nH]n2)C(=O)c2ccc(C(F)(F)F)cc21 [drawing 307, 1-(4-fluoro-2-methylphenyl)-3-(6-oxo-1,6-dihydropyridazin-3-yl)-7-(trifluoromethyl)-2,3-dihydroquinazolin-4(1H)-one]",2,–
"Cc1cc(F)ccc1N1CN(c2ncc(=O)[nH]c2C)C(=O)c2ccc(C(F)(F)F)cc21 [drawing 308, 1-(4-fluoro-2-methylphenyl)-3-(3-methyl-5-oxo-4,5-dihydropyrazin-2-yl)-7-(trifluoromethyl)-2,3-dihydroquinazolin-4(1H)-one]",0.398,–
"Cc1cc(N2CN(c3ccc(F)cc3C)c3cc(C(F)(F)F)ccc3C2=O)cc(=O)[nH]1 [drawing 310, 1-(4-fluoro-2-methylphenyl)-3-(6-methyl-2-oxo-1,2-dihydropyridin-4-yl)-7-(trifluoromethyl)-2,3-dihydroquinazolin-4(1H)-one]",–,2.51
